Measurements published in patent US7307063B2, “Melanocortin metallopeptides for treatment of sexual dysfunction” (Palatin Technologies, Inc., priority 2001, dated 2007).
Several values for one entry are separate records, joined by “and”; a condition that tells them apart may be missing. Identical values can stand only once. Non-standard residues stand in square brackets, D forms with d. No end group written: not given here. *: point of attachment. Desaminotyrosyl = O=C(CCc1ccc(O)cc1)*; Ac6c = NC1(C(=O)O)CCCCC1; Ac5c = NC1(C(=O)O)CCCC1

Legend:
MC1-R = biological target: T1, MC1-R (Mus musculus, UniProt Q01727); test: Competitive binding assay: inhibition of 125I-NDP-α-MSH binding to membranes from B16-F10 mouse melanoma cells; details: Table 6; 1 μM; mean of triplicate
T1 construct: MC1-R membranes were isolated from B16—F10 mouse melanoma cells; endogenous in cells; host or cells: B16-F10 mouse melanoma cells
Description: (§1) Rhenium-complexed metallopeptides of the formulas given in Table 1 were prepared, with the metallopeptides complexed with rhenium using the rhenium transfer agent ReOCl3(PPh3)2 in the presence of 1,8-Diazabicyclo[5,4,0] undec-7-ene as a base, as disclosed in International Application PCT/US00/16396, filed Jun. 14, 2000, Melanocortin Metallopeptide Constructs, Combinatorial Libraries and Applications, incorporated by reference herein. Affinities of compounds were measured using membranes from HEK-293 cells containing cloned human melanocortin receptor subtypes 3, 4 and 5. MC1-R membranes were isolated from B16—F10 mouse melanoma cells. The assay tube also contained a chosen concentration of the test peptide of this invention, complexed to a rhenium metal ion as indicated, for determining its efficacy in inhibiting the binding of ^125I-NDP-α-MSH to its receptor. Non-specific binding was measured by complete inhibition of binding of ^125I-NDP-α-MSH in the assay with the presence of 1 μM α-MSH. 100% specific binding was defined as the difference in radioactivity (cpm) bound to cell membranes in the absence and presence of 1 μM α-MSH. The cpm obtained in presence of test compounds were normalized with respect to 100% specific binding to determine the percent inhibition of ^125I-NDP-α-MSH binding.
(§2) Peptide sequences set forth in Table 6 were prepared using conventional synthetic means. The resulting sequences were rhenium-complexed to form metallopeptides, with the metallopeptides complexed with rhenium using the rhenium transfer agent ReOCl3(PPh3)2 in the presence of 1,8-Diazabicyclo[5,4,0] undec-7-ene as a base. Percent inhibition was determined as in Example 1 using the Re-complexed metallopeptides, using the same methods as described therein. All measures are means of triplicate determinations.

MC4-R = biological target: T2, MC4-R (Homo sapiens, UniProt P32245); test: Competitive binding assay: inhibition of 125I-NDP-α-MSH binding to HEK-293 membranes with cloned human receptor subtype 4; details: Table 6; 1 μM; mean of triplicate
T2 construct: expressed in transfected cells; host or cells: HEK-293
Description: as §1, §2

hMC2-R = biological target: T3, hMC2-R (Homo sapiens, UniProt P41968); test: Competitive binding assay of additional compounds, Table 6 hMC2-R; details: 1 μM, mean of triplicate
T3 construct: expressed in transfected cells; host or cells: HEK-293
Description: [The source words this procedure for another target and reports this target under the same test.] as §1, §2

hMC5-R = biological target: T4, hMC5-R (Homo sapiens, UniProt P33032); test: Competitive binding assay: inhibition of 125I-NDP-α-MSH binding to HEK-293 membranes with cloned human receptor subtype 5; details: Table 6; 1 μM; mean of triplicate
T4 construct: expressed in transfected cells; host or cells: HEK-293
Description: as §1, §2

T3 sequence (P41968 whole entry): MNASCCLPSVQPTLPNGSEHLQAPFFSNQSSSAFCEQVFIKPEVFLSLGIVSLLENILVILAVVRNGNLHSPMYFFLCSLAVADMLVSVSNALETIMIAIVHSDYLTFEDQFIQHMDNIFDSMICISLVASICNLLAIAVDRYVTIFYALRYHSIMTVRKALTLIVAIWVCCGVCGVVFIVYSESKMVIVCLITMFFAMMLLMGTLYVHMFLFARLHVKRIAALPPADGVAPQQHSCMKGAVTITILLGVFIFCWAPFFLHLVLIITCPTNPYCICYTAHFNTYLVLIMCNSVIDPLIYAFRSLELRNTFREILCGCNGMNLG
T1 sequence (Q01727 whole entry): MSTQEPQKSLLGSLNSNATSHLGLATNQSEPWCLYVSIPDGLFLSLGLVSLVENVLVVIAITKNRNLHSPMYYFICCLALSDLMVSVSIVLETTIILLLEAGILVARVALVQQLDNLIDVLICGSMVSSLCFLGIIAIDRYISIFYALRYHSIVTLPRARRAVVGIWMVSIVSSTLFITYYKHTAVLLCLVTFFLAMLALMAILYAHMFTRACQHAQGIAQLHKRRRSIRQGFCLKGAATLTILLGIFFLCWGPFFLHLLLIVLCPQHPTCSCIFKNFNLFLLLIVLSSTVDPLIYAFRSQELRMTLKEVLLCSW
T2 sequence (P32245 whole entry): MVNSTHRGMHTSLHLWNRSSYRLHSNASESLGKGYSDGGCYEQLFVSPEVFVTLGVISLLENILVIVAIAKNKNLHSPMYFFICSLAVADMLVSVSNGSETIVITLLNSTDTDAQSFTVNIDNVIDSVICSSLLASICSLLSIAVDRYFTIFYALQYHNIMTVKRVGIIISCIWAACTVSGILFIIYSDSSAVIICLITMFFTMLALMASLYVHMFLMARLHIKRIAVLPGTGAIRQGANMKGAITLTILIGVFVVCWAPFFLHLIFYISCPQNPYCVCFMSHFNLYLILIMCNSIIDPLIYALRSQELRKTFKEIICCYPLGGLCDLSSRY
T4 sequence (P33032 whole entry): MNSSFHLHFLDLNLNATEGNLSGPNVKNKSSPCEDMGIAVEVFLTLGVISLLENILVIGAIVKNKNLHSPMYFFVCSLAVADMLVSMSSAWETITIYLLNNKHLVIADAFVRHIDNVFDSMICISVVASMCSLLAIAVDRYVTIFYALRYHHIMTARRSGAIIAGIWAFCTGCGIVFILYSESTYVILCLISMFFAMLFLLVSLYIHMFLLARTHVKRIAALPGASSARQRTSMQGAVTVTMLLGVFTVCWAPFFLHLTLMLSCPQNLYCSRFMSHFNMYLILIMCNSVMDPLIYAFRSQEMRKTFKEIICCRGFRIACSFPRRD

Substance | % Inhibition of Binding MC1-R (MC1-R) | % Inhibition of Binding hMC4-R (MC4-R) | % Inhibition of Binding hMC2-R (hMC2-R) | % Inhibition of Binding hMC5-R (hMC5-R)
1-amino-1-cyclohexane carboxyl-D-Phe-Arg-Cys-Trp-NH2 ([Ac6c][dF]RCW-NH2; N-terminus assumed; SMILES N=C(N)NCCC[C@H](NC(=O)[C@@H](Cc1ccccc1)NC(=O)C1(N)CCCCC1)C(=O)N[C@@H](CS)C(=O)N[C@@H](Cc1c[nH]c2ccccc12)C(N)=O) | 92% | 14% | 0% | 65%
1-amino-1-cyclohexane carboxyl-D-Phe-Arg-Trp-Cys-NH2 ([Ac6c][dF]RWC-NH2; N-terminus assumed; SMILES N=C(N)NCCC[C@H](NC(=O)[C@@H](Cc1ccccc1)NC(=O)C1(N)CCCCC1)C(=O)N[C@@H](Cc1c[nH]c2ccccc12)C(=O)N[C@@H](CS)C(N)=O) | 11% | 1% | 0% | 16%
1-amino-1-cyclopentane carboxyl-D-Phe-Arg-Cys-Trp-NH2 ([Ac5c][dF]RCW-NH2; N-terminus assumed; SMILES N=C(N)NCCC[C@H](NC(=O)[C@@H](Cc1ccccc1)NC(=O)C1(N)CCCC1)C(=O)N[C@@H](CS)C(=O)N[C@@H](Cc1c[nH]c2ccccc12)C(N)=O) | 78% | 16% | 0% | 60%
1-amino-1-cyclopentane carboxyl-D-Phe-Arg-Trp-Cys-NH2 ([Ac5c][dF]RWC-NH2; N-terminus assumed; SMILES N=C(N)NCCC[C@H](NC(=O)[C@@H](Cc1ccccc1)NC(=O)C1(N)CCCC1)C(=O)N[C@@H](Cc1c[nH]c2ccccc12)C(=O)N[C@@H](CS)C(N)=O) | 23% | 0% | 7% | 14%
3′-(4′-Hydroxyphenyl)propionyl-D-Phe-Arg-Cys-Trp-NH2 (Desaminotyrosyl-[dF]RCW-NH2; not fully specified; printed as 3′-(4′-Hydroxyphenyl)propionyl-D-Phe-Arg-Cys-Trp-NH2) | 7% | 0% | 0% | 14%
3′-(4′-Hydroxyphenyl)propionyl-HiS-D-Phe-Arg-Cys-Trp-NH2 (Desaminotyrosyl-H[dF]RCW-NH2; not fully specified; printed as 3′-(4′-Hydroxyphenyl)propionyl-HiS-D-Phe-Arg-Cys-Trp-NH2) | 76% | 0% | 0% | 21%
3′-Br Phenyl acetyl-Arg-Arg-D-Bip-Cys-Bip-NH2 | 56% | 68% | 46% | 92%
3′-Br Phenyl acetyl-Arg-Arg-D-Bip-Cys-Trp-NH2 | 91% | 77% | 83% | 99%
3′-Br Phenyl acetyl-Arg-Arg-D-Phe(3′-Cl)-Cys-Nal 1′-NH2 | 61% | 62% | 49% | 83%
3′-Br Phenyl acetyl-Arg-Arg-D-Phe(3′-Cl)-Cys-Nal 2′-NH2 | 65% | 75% | 68% | 89%
3′-Br Phenyl acetyl-Arg-Arg-D-Phe(4′-CF3)-Cys-Trp-NH2 | 72% | 89% | 94% | 99%
3′-Br Phenyl acetyl-Arg-Arg-D-Phe(4′-Cl)-Cys-Bip-NH2 | 69% | 78% | 60% | 86%
3′-Br Phenyl acetyl-Arg-Arg-D-Phe(4′-Cl)-Cys-Nal 1′-NH2 | 90% | 84% | 85% | 89%
3′-Br Phenyl acetyl-Arg-Arg-D-Phe(4′-Me)-Cys-NH2 | 94% and 84% | 99% and 93% | 87% | 88%
3′-Br Phenyl acetyl-Arg-Arg-D-Phe(4′-Me)-Cys-Trp-NH2 | 93% and 85% | 98% and 82% | 86% | 94%
3′-Br Phenyl acetyl-Lys-Ala-D-Phe(2′-Cl)-Cys-Trp-NH2 | 9% | 34% | 19% | 44%
3′-Br Phenyl acetyl-Lys-Ala-D-Phe(4′-CF3)-Cys-Trp-NH2 | 4% and 10% | 96% and 74% | 77% | 83%
3′-Br-Phenylacetyl-His-D-Phe(4′-Cl)-Trp-Cys-NH2 | 41% | 3% | 15% | 40%
3′-Br-Phenylacetyl-His-Gly-D-Phe(4′-Cl)Trp-Cys-NH2 | 33% | 2% | 14% | 16%
3′-Bromo phenyl acetyl-Arg-Ala-D-Phe(4′-Cl)-Cys-NH2 | 90% | 59% | 47% | 15%
3′-Bromo phenyl acetyl-Arg-Ala-D-Phe(4′-Cl)-Cys-Trp-NH2 | 8% | 80% | 35% | 86%
3′-Bromo phenyl acetyl-Arg-His-D-Phe(4′-Cl)-Cys-NH2 | 47% | 15% | 11% | 0%
3′-Bromo phenyl acetyl-Arg-Thr(Bzl)-D-Phe(4′-Cl)-Cys-NH2 | 16% | 6% | 5% | 21%
3′-Bromo phenyl acetyl-Arg-Thr-D-Phe(4′-Cl)-Cys-NH2 | 8% | 1% | 6% | 2%
3′-Bromo phenyl acetyl-Arg-Trp-D-Phe(4′-Cl)-Cys-NH2 | 5% | 17% | 0% | 21%
3′-Bromo phenyl acetyl-Lys-Ala-D-Phe(3′-Cl)-Cys-Trp-NH2 | 4% | 38% | 13% | 60%
